Square brackets hold non-standard residues; d marks the D form. * marks the point of attachment. CH2Cl = ClC*
B1: plasmin: exogenous plasmin added to plasma, mimicking a fibrinolytic setting (protein, UniProt P00747 20-580; P00747 581-810, looked up)
Plasmin heavy chain A: EPLDDYVNTQGASLFSVTKKQLGAGSIEECAAKCEEDEEFTCRAFQYHSKEQQCVIMAENRKSSIIIRMRDVVLFEKKVYLSECKTGNGKNYRGTMSKTKNGITCQKWSSTSPHRPRFSPATHPSEGLEENYCRNPDNDPQGPWCYTTDPEKRYDYCDILECEEECMHCSGENYDGKISKTMSGLECQAWDSQSPHAHGYIPSKFPNKNLKKNYCRNPDRELRPWCFTTDPNKRWELCDIPRCTTPPPSSGPTYQCLKGTGENYRGNVAVTVSGHTCQHWSAQTPHTHNRTPENFPCKNLDENYCRNPDGKRAPWCHTTNSQVRWEYCKIPSCDSSPVSTEQLAPTAPPELTPVVQDCYHGDGQSYRGTSSTTTTGKKCQSWSSMTPHRHQKTPENYPNAGLTMNYCRNPDADKGPWCFTTDPSVRWEYCNLKKCSGTEASVVAPPPVVLLPDVETPSEEDCMFGNGKGYRGKRATTVTGTPCQDWAAQEPHRHSIFTPETNPRAGLEKNYCRNPDGDVGGPWCYTTNPRKLYDYCDVPQCAAPSFDCGKPQVEPKKCPGR
Plasmin light chain B: VVGGCVAHPHSWPWQVSLRTRFGMHFCGGTLISPEWVLTAAHCLEKSPRPSSYKVILGAHQEVNLEPHVQEIEVSRLFLEPTRKDIALLKLSSPAVITDKVIPACLPSPNYVVADRTECFITGWGETQGTFGAGLLKEAQLPVIENKVCNRYEFLNGRVQSTELCAGHLAGGTDSCQGDSGGPLVCFEKDKYILQGVTSWGLGCARPNKPGVYVRVSRFVTWIEGVMRNN
modifications: Plasmin
notes: exogenous plasmin added to plasma, mimicking a fibrinolytic setting

Tested on: LPS or bacterial induced sepsis in animals
Assay: not given
Details: in vivo; cited from earlier work

Row | Molecule | vascular permeability in multiple organs and lesions
1 | H-[dP]-Phe-Arg-CH2Cl [reference compound] | reduce

Target: T1, Human plasma kallikrein (PK) (Homo sapiens, UniProt P03952)
T1 construct: purchased Haemtech Technologies (Essex Junction, Vt.)
Assay: Inhibition of human plasma kallikrein amidolytic activity (H-D-Pro-Phe-Arg-pNA cleavage, A405)
Assay type: biochemical
Details: PK Kiapp, apparent inhibition constant; 1 nM PK, pH 7.5
Method: Human plasma kallikrein (PK) was obtained from Haemtech Technologies (Essex Junction, Vt.). The enzymatic activity of PK was assayed using the synthetic peptide substrate H-D-Pro-Phe-Arg-pNA (Bachem, Inc., Switzerland) with the cleavage of the substrate by the enzyme resulting in an increase in A405, measured using a Molecular Devices Vmax Kinetic Microplate Reader. The uninhibited (control) activity of PK was determined by adding 190 μl of PK solution (1 nM in 0.05 M HEPES, pH 7.5, 0.01% Triton X-100) to 10 μl of H-D-Pro-Phe-Arg-pNA (2 mM in DMSO) in individual microtiter plate wells, mixed immediately by shaking, and the rate of increase in A405 determined over 120-180 sec. In parallel, compounds of the present invention were mixed in separate wells with the synthetic substrate to attain final concentrations of between 0.01-10 μM in the final 200 μl reaction mixture, and the reaction initiated by the addition of 190 μl of the PK solution.
The highest concentration of either compound tested was 10 μM.

T1 sequence (P03952 391-638 limits assumed): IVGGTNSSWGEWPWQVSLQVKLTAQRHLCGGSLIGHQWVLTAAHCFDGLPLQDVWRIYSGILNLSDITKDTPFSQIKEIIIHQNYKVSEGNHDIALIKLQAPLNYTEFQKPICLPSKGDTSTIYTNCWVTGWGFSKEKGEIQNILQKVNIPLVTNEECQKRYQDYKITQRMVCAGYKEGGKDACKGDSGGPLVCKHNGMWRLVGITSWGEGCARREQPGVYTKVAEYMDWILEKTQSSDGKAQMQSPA
T1 sequence (P03952 20-390 partner limits assumed): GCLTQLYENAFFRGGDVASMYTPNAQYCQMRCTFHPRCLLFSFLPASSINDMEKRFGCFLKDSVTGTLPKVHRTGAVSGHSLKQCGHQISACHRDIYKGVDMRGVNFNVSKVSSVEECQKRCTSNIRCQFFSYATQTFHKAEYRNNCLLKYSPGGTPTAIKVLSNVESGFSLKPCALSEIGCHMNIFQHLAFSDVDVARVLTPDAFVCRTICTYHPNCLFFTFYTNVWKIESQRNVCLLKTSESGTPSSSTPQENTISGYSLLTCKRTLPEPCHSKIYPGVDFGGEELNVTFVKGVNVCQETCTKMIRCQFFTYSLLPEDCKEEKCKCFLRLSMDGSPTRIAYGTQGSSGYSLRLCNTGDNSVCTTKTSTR

Row | Molecule | Ki
2 | N=C(N)c1ccc(CNC(=O)c2cn(Cc3ccccc3)c3ccccc23)cc1 [ASP-381, 1-Benzyl-1H-indole-3-carboxylic acid 4-carbamimidoyl-benzylamide] | 0.24 µM

Same assay, conditions: Table 4 inhibition constants; read-out: Ki

Row | Ki | Molecule
3 | 0.03 µM | N=C(N)c1ccc(CNC(=O)c2cn(S(=O)(=O)c3ccccc3)c3ccccc23)cc1 (single isomer, unassigned) [compound 2]
4 | 0.15 µM | N=C(N)c1ccc(CNC(=O)c2cnn(Cc3ccccc3)c2)cc1 (single isomer, unassigned) [compound 3]
5 | 1 µM | N=C(N)c1ccc(CNC(=O)c2cnn(-c3ccccc3)c2)cc1 [compound 4]

Row | Molecule | Ki
6 | N=C(N)c1ccc(CNC(=O)c2cn(Cc3ccccc3)c3ccccc23)cc1 [compound 1] | 0.08 µM

Same assay, conditions: apparent inhibition constant; 1 nM PK, pH 7.5; read-out: PK Kiapp

Row | Ki | Molecule
7 | 8.87 µM | Cc1nc(-c2ccccc2)sc1C(=O)NCc1ccc(C(=N)N)cc1 [ASP-373, 4-Methyl-2-phenyl-thiazole-5-carboxylic acid 4-carbamimidoyl-benzylamide]
8 | 0.17 µM | N=C(N)c1ccc(CNC(=O)c2cn(S(=O)(=O)c3ccccc3)c3ccccc23)cc1 [ASP-383, 1-Benzenesulfonyl-1H-indole-3-carboxylic acid 4-carbamimidoyl-benzylamide]
9 | 1.43 µM | N=C(N)c1ccc(CNC(=O)c2cnn(-c3ccccc3)c2)cc1 [ASP-445, 1-Phenyl-1H-pyrazole-4-carboxylic acid 4-carbamimidoyl-benzylamide]
10 | 1.29 µM | Cc1oc(-c2ccccc2)cc1C(=O)NCc1ccc(C(=N)N)cc1 [ASP-466, 2-Methyl-5-phenyl-furan-3-carboxylic acid 4-carbamimidoyl-benzylamide]
11 | 2.52 µM | N=C(N)c1ccc(CNC(=O)c2cc3ccccc3[nH]2)cc1 [ASP-484, 1H-Indole-2-carboxylic acid 4-carbamimidoyl-benzylamide]
12 | 0.87 µM | N=C(N)c1ccc(CNC(=O)c2cc3ccccc3o2)cc1 [ASP-485, Benzofuran-2-carboxylic acid 4-carbamimidoyl-benzylamide]
13 | 1.57 µM | N=C(N)c1ccc(CNC(=O)c2cc3ccccc3s2)cc1 [ASP-486, Benzo[b]thiophene-2-carboxylic acid 4-carbamimidoyl-benzylamide]
14 | 2.11 µM | N=C(N)c1ccc(CNC(=O)c2csc3ccccc23)cc1 [ASP-491, Benzo[b]thiophene-3-carboxylic acid 4-carbamimidoyl-benzylamide]
15 | 2.45 µM | N=C(N)c1ccc(CNC(=O)c2c[nH]c3ccccc23)cc1 [ASP-493, 1H-Indole-3-carboxylic acid 4-carbamimidoyl-benzylamide]
16 | 7.66 µM | N=C(N)c1ccc(CNC(=O)c2ccc(-c3ccccc3)s2)cc1 [ASP-523, 5-Phenyl-thiophene-2-carboxylic acid 4-carbamimidoyl-benzylamide]
17 | 20.6 µM | N=C(N)c1ccc(CNC(=O)c2ccc(-c3ccccn3)s2)cc1 [ASP-525, 5-Pyridin-2-yl-thiophene-2-carboxylic acid 4-carbamimidoyl-benzylamide]
18 | 2.62 µM | Cc1c(C(=O)NCc2ccc(C(=N)N)cc2)nnn1Cc1ccc(Br)cc1 [ASP-558, 1-(4-Bromo-benzyl)-5-methyl-1H-1,2,3-triazole-4-carboxylic acid 4-carbamimidoyl-benzylamide]
19 | 8.09 µM | N=C(N)c1ccc(CNC(=O)c2cn(Cc3ccc(F)cc3)nn2)cc1 [ASP-559, 1-(4-Fluoro-benzyl)-1H-1,2,3-triazole-4-carboxylic acid 4-carbamimidoyl-benzylamide]
20 | 0.04 µM | Cc1cc(C(=O)NCc2ccc(C(=N)N)cc2)c(C)n1-c1ccccc1 [ASP-576, 2,5-Dimethyl-1-phenyl-1H-pyrrole-3-carboxylic acid 4-carbamimidoyl-benzylamide]
21 | 1.13 µM | Cc1nn(Cc2ccccc2)c(C)c1C(=O)NCc1ccc(C(=N)N)cc1 [ASP-577, 1-Benzyl-3,5-dimethyl-1H-pyrazole-4-carboxylic acid 4-carbamimidoyl-benzylamide]
22 | 1.64 µM | Cc1nn(Cc2ccccc2Cl)c(C)c1C(=O)NCc1ccc(C(=N)N)cc1 [ASP-578, 1-(2-Chloro-benzyl)-3,5-dimethyl-1H-pyrazole-4-carboxylic acid 4-carbamimidoyl-benzylamide]
23 | 1.19 µM | Cc1nn(Cc2c(Cl)cccc2Cl)c(Cl)c1C(=O)NCc1ccc(C(=N)N)cc1 [ASP-579, 5-Chloro-1-(2,6-dichloro-benzyl)-3-methyl-1H-pyrazole-4-carboxylic acid 4-carbamimidoyl-benzylamide]
24 | 0.03 µM | Cc1cc(C(=O)NCc2ccc(C(=N)N)cc2)c(C)n1Cc1ccccc1 [ASP-580, 1-Benzyl-2,5-dimethyl-1H-pyrrole-3-carboxylic acid 4-carbamimidoyl-benzylamide]
25 | 0.41 µM | Cc1cc(C(=O)NCc2ccc(C(=N)N)cc2)c(C)n1CC(F)(F)F [ASP-581, 2,5-Dimethyl-1-(2,2,2-trifluoro-ethyl)-1H-pyrrole-3-carboxylic acid 4-carbamimidoyl-benzylamide]
26 | 0.47 µM | N=C(N)c1ccc(CNC(=O)c2cnn(Cc3ccccc3Cl)c2)cc1 [ASP-582, 1-(2-Chloro-benzyl)-1H-pyrazole-4-carboxylic acid 4-carbamimidoyl-benzylamide]
27 | 2.38 µM | Cc1nn(Cc2ccc(F)cc2)c(Cl)c1C(=O)NCc1ccc(C(=N)N)cc1 [ASP-583, 5-Chloro-1-(4-fluoro-benzyl)-3-methyl-1H-pyrazole-4-carboxylic acid 4-carbamimidoyl-benzylamide]

Tested on: plasmin-activated coagulation in plasma
Assay: Plasmin-activated coagulation of plasma (plasmin + 6.25% Actin FS), time to coagulation
Set-up: species or system human
Details: 100 nM plasmin, 50% plasma, 6.25% Actin FS; control 1.00
Method: In the clotting paradigm utilized in Example 3, plasma is mixed 1:1 with commercially formulated Actin FS. Thus, 50% (v/v) Actin FS is the maximum amount of activator that can be added while maintaining the amount of plasma constant at 50% of the incubation mixture. Since the clotting time in normal plasma is dependent on the amount of Actin FS present in the incubation mixture, these conditions would by definition lead to the shortest time to coagulation mediated by the intrinsic pathway in this paradigm. Lowering the amount of contact activator leads to a decrease in the amount of PK activated, thus reducing the amount of thrombin generated and slowing the time to coagulation (data not shown). Therefore, in order to determine whether addition of exogenous plasmin (mimicking a fibrinolytic setting) can shorten time to coagulation, the amount of Actin FS reagent added to the plasma (kept constant at 50% of the final incubation mixture) was lowered so as to attain 6.25% (final v/v).
This provides direct evidence that plasmin can have a thrombogenic effect when added to plasma in the presence of a small amount of contact activator.
The role for PK was established by evaluating deficiencies in PK, as well as by using two specific inhibitors of the enzymes. In order to determine whether blocking PK via a specific monoclonal antibody (MAb) would also be effective in inhibiting coagulation in either of the two paradigms described here, and thus provide additional validation for the invention, MAb 13G11, which has been previously characterized as being specific for PK (Veloso et al, (1987) Blood, 70, 1053-1062), was tested in each of the coagulation paradigms described in Examples 2 and 3. MAb 13G11 (obtained from GeneTex, San Antonio, Tex.) was added at a final concentration of 0.036 mg/ml in the 50% plasma—50% activator mix in each paradigm. This calculates to an approximately 2-fold molar excess over the amount of PK that would be present in the plasma—activator mixture, based on the literature reference of Veloso et al, (1987), Blood, 70, 1053-1062. Control samples were treated with 0.036 mg/ml of an isotype-matched control IgG1 (also obtained from GeneTex). When plasma was activated using 50% Actin FS (FIG. 5), MAb 13G11 prolonged time to coagulation by 100% (45% of the maximal effect obtained with PK-deficient plasma), and, when plasma was activated using 200 nM plasmin+6.25% Actin FS (FIG. 6), prolonged time to coagulation by 32% (40% of the maximal effect obtained with PK-deficient plasma).

Row | Molecule | relative coagulation time
28 | B1 | 0.74

Same assay, conditions: 200 nM plasmin, 50% plasma, 6.25% Actin FS; control 1.00

Row | Molecule | relative coagulation time
29 | B1 | 0.65

Same assay, conditions: 200 nM plasmin, absence of any Actin FS

Row | Molecule | relative time to coagulation
30 | B1 | 4.0
